Test results as given in patent US20250236608A1, “EGFR INHIBITORS” (Blueprint Medicines Corporation, priority 2022, published 2025).

Assays:
[1] = target: EGFR L858R (Homo sapiens (Human), UniProt P00533, L858R); assay: Biochemical EGFR inhibition assay, EGFR L858R; conditions: Caliper mobility shift; 1.0 mM ATP or ATP Km; read-out: Enz EGFR_L858R IC50
[2] = target: EGFR (d746-750) (Homo sapiens (Human), UniProt P00533, DEL746-750); assay: Biochemical EGFR inhibition assay, EGFR (d746-750); conditions: Caliper mobility shift; 1.0 mM ATP or ATP Km; read-out: Enz EGFR_Exon19-del746-750 IC50
Chain of EGFR (d746-750) (P00533 other isoform, or with tags, fused parts or gaps del 1-694/del 746-750 limits assumed): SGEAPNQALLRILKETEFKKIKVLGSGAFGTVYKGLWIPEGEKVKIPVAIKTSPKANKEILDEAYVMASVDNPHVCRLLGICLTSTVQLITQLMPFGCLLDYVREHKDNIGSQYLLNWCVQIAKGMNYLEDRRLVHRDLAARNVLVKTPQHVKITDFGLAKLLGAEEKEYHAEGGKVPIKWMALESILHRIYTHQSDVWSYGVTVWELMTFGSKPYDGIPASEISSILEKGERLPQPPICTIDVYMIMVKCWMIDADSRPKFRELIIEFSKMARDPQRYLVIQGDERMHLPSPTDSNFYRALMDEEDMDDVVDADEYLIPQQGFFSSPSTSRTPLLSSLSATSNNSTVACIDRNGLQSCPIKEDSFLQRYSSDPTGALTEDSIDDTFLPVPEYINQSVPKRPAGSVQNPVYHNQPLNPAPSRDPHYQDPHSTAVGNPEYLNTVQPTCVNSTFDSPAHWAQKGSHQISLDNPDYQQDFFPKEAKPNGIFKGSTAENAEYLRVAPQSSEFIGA

[3] = target: pEGFR (Tyr1068) in PC-9 cells (Ex19Del) (Homo sapiens (Human), UniProt P00533, DEL746-750); assay: PC-9 pEGFR AlphaLISA assay; assay type: cell-based; conditions: 4 hours incubation, p-EGFR (Tyr1068) AlphaLISA, read-out: Ext pEGFR_PC-9 Ex19Del IC50
Chain of pEGFR (Tyr1068) in PC-9 cells (Ex19Del) (P00533 other isoform, or with tags, fused parts or gaps del 746-750): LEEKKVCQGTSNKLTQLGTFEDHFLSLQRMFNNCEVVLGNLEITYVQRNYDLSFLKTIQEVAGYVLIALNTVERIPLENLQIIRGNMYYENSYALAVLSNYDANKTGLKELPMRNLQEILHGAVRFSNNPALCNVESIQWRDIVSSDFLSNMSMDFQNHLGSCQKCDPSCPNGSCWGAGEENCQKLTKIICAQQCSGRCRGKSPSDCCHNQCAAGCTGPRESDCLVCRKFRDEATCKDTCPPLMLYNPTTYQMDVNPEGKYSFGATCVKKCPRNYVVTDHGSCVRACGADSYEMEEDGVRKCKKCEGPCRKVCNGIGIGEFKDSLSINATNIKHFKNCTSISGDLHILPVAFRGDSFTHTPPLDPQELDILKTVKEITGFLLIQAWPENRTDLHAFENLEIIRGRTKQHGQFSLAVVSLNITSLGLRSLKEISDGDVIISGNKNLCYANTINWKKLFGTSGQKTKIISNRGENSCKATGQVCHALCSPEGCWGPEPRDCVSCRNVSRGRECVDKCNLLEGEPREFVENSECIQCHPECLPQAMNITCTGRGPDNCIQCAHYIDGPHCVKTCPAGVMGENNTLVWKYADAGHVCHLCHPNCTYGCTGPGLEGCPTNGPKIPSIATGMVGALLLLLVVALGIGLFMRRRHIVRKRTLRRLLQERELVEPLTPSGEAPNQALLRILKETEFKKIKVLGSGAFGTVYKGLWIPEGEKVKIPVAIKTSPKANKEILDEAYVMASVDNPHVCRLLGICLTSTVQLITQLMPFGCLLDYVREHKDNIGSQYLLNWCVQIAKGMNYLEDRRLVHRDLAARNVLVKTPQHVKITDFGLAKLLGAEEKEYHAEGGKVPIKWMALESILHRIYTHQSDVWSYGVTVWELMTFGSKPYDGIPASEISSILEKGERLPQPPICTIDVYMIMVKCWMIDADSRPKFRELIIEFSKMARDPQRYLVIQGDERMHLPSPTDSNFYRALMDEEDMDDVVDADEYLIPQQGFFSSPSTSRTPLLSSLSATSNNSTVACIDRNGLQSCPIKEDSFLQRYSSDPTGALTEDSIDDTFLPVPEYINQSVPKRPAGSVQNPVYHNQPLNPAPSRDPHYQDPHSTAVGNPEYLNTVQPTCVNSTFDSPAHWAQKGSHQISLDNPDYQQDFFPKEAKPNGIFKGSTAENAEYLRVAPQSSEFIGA
Summary of the method: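 First, cells settled overnight in 10% FBS medium. Second, a 10-point, 4-fold series of test agents was applied for 4 h at 37° C. Third, lysates were probed with AlphaLISA acceptor and donor beads, incubated overnight in the dark. Last, IC50 was taken from the dose-response.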

Chain of EGFR L858R (P00533 25-1210 L858R): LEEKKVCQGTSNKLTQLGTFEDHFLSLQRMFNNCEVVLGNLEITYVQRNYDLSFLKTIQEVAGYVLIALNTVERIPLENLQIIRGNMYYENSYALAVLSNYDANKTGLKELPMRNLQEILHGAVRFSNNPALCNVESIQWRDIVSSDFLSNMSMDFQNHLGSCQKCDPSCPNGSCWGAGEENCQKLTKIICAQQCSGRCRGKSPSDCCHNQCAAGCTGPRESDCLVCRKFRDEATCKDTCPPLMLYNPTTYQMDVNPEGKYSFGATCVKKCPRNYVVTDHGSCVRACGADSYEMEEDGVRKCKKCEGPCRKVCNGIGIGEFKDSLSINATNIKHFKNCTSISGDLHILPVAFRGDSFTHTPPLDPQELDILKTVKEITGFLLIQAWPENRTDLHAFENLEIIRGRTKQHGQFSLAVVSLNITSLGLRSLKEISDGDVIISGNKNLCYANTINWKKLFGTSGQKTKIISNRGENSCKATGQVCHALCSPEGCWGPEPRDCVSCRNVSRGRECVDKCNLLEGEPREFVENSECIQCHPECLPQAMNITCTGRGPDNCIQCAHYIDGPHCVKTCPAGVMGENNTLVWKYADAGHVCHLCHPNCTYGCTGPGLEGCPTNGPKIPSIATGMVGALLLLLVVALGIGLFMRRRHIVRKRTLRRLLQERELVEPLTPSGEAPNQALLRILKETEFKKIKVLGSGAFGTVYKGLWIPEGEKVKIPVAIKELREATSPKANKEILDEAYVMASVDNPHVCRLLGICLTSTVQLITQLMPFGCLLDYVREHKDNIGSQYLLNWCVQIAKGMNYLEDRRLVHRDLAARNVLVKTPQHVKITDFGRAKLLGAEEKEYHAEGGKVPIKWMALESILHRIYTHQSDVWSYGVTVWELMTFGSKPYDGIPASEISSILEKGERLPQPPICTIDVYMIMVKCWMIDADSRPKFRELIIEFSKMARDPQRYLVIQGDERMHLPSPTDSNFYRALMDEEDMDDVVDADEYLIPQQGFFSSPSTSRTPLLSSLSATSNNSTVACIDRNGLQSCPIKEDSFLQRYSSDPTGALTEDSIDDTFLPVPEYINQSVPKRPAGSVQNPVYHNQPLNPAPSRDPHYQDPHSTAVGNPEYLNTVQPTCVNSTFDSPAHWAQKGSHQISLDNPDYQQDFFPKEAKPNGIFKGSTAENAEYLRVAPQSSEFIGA

IC50 [1] [nM]	IC50 [2] [nM]	IC50 [3] [nM]	Compound
70.7	47.3	636	[2H]C([2H])([2H])n1ncc(-c2ncnc3cc(OC)c(NC(=O)C4(C(F)(F)F)CC4)nc23)c1-c1ccccc1 [Example 492]
60.4	7.4	22	CN(C)C12CC(C(=O)Nc3nc4c(-c5cn(C)nc5-c5ccccc5F)ncnc4cc3OC(F)F)(C1)C2 [Example 468, N-[7-(difluoromethoxy)-4-[3-(2-fluorophenyl)-1-methyl-1H-pyrazol-4-yl]pyrido[3,2-d]pyrimidin-6-yl]-3-(dimethylamino) bicyclo[1.1.1]pentane-1-carboxamide]
5	1.7	3.5	CN(C)CCOc1cc2ncnc(-c3cn(C)nc3-c3ccccc3)c2cc1NC(=O)c1ccccc1F [Example 300, N-(7-(2-(dimethylamino)ethoxy)-4-(1-methyl-3-phenyl-1H-pyrazol-4-yl)quinazolin-6-yl)-2-fluorobenzamide]
2.1	1.1	1.7	COc1cc2ncnc(-c3cn(C)nc3-c3ccccc3F)c2nc1NC(=O)[C@]12COC[C@H]1C2 (single isomer, unassigned) [Example 386, (1S,5S)—N-(4-(3-(2-fluorophenyl)-1-methyl-1H-pyrazol-4-yl)-7-methoxypyrido[3,2-d]pyrimidin-6-yl)-3-oxabicyclo[3.1.0]hexane-1-carboxamide or (1R,5R)—N-(4-(3-(2-fluorophenyl)-1-methyl-1H-pyrazol-4-yl)-7-methoxypyrido[3,2-d]pyrimidin-6-yl)-3-oxabicyclo[3.1.0]hexane-1-carboxamide]
2	0.8	1.7	CCn1cc(-c2ncnc3cc(OC)c(NC(=O)C45CC(N(C)C)(C4)C5)nc23)c(-c2ccc(F)cc2)n1 [Example 405, 3-(dimethylamino)-N-(4-(1-ethyl-3-(4-fluorophenyl)-1H-pyrazol-4-yl)-7-methoxypyrido[3,2-d]pyrimidin-6-yl)bicyclo[1.1.1]pentane-1-carboxamide]
5.9	0.7	3.6	COc1cc2ncnc(-c3cn(C)nc3-c3ccccc3)c2nc1NC(=O)C12CC(N(C)C)(C1)C2 [Example 404, 3-(dimethylamino)-N-(7-methoxy-4-(1-methyl-3-phenyl-1H-pyrazol-4-yl)pyrido[3,2-d]pyrimidin-6-yl)bicyclo[1.1.1]pentane-1-carboxamide]
2.1	1.3	0.9	COc1cc2ncnc(-c3cn(C)nc3-c3ccccc3)c2cc1NC(=O)C1CC(F)(F)C1 [Example 346, 3,3-difluoro-N-(7-methoxy-4-(1-methyl-3-phenyl-1H-pyrazol-4-yl)quinazolin-6-yl)cyclobutane-1-carboxamide]
1.7	1.1	0.5	COc1cc2ncnc(-c3cn(CC(F)F)nc3-c3ccccc3)c2nc1NC(=O)[C@]12C[C@H]1CN(C)C2 (single isomer, unassigned) [Example 396, (1R,5R)—N-(4-(1-(2,2-difluoroethyl)-3-phenyl-1H-pyrazol-4-yl)-7-methoxypyrido[3,2-d]pyrimidin-6-yl)-3-methyl-3-azabicyclo[3.1.0]hexane-1-carboxamide or (1S,5S)—N-(4-(1-(2,2-difluoroethyl)-3-phenyl-1H-pyrazol-4-yl)-7-methoxypyrido[3,2-d]pyrimidin-6-yl)-3-methyl-3-azabicyclo[3.1.0]hexane-1-carboxamide]
416	126	981	Cn1cc(-c2ncnc3cc(C(F)(F)F)c(NC(=O)C45COCC4C5)nc23)c(-c2ccccc2)n1 (stereo not drawn) [Example 488, N-(4-(1-methyl-3-phenyl-1H-pyrazol-4-yl)-7-(trifluoromethyl)pyrido[3,2-d]pyrimidin-6-yl)-3-oxabicyclo[3.1.0]hexane-1-carboxamide]
2.2	1.3	2.8	CCOc1cc2ncnc(-c3cn(C)nc3-c3ccccc3)c2nc1NC(=O)[C@@]12C[C@@H]1CN(C)C2 (single isomer, unassigned) [Example 377, (1S,5S)—N-(7-ethoxy-4-(1-methyl-3-phenyl-1H-pyrazol-4-yl)pyrido[3,2-d]pyrimidin-6-yl)-3-methyl-3-azabicyclo[3.1.0]hexane-1-carboxamide or (1R,5R)—N-(7-ethoxy-4-(1-methyl-3-phenyl-1H-pyrazol-4-yl)pyrido[3,2-d]pyrimidin-6-yl)-3-methyl-3-azabicyclo[3.1.0]hexane-1-carboxamide]

The next lines start with the molecule.

Compound	IC50 [1] [nM]	IC50 [2] [nM]	IC50 [3] [nM]
COc1cc2ncnc(-c3cn(C)nc3-c3ccccc3)c2cc1NC(=O)[C@H]1C[C@@H]1C(F)(F)F [Example 287, (1S,2S)—N-(7-methoxy-4-(1-methyl-3-phenyl-1H-pyrazol-4-yl)quinazolin-6-yl)-2-(trifluoromethyl)cyclopropane-1-carboxamide]	4.5	1.2	13
COc1cc2ncnc(-c3cn(C)nc3-c3ccccc3)c2cc1OC(=O)N1CCO[C@H](C)[C@@H]1C [Example 94, 7-methoxy-4-(1-methyl-3-phenyl-1H-pyrazol-4-yl)quinazolin-6-yl (2R,3S)-2,3-dimethylmorpholine-4-carboxylate]	6.4	3.2	11.3
CCOc1cc2ncnc(-c3cn(C)nc3-c3ccccc3)c2cc1NC(=O)[C@]12C[C@H]1CN(C)C2 (single isomer, unassigned) [Example 257, (1R,5R)—N-(7-ethoxy-4-(1-methyl-3-phenyl-1H-pyrazol-4-yl)quinazolin-6-yl)-3-methyl-3-azabicyclo[3.1.0]hexane-1-carboxamide or (1S,5S)—N-(7-ethoxy-4-(1-methyl-3-phenyl-1H-pyrazol-4-yl)quinazolin-6-yl)-3-methyl-3-azabicyclo[3.1.0]hexane-1-carboxamide]	1.5	0.9	4.8
COc1cc2ncnc(-c3cn(C)nc3-c3c(F)cccc3F)c2cc1NC(=O)[C@]12C[C@H]1CN(C)C2 [Example 293, (1R,5R)—N-(4-(3-(2,6-difluorophenyl)-1-methyl-1H-pyrazol-4-yl)-7-methoxyquinazolin-6-yl)-3-methyl-3-azabicyclo[3.1.0]hexane-1-carboxamide]	277	3.4	8.9
COc1cc2ncnc(-c3cn(C)nc3-c3ccccc3)c2nc1O[C@H](C)c1cnnn1C [Example 41, (R)-7-methoxy-6-(1-(1-methyl-1H-1,2,3-triazol-5-yl)ethoxy)-4-(1-methyl-3-phenyl-1H-pyrazol-4-yl)pyrido[3,2-d]pyrimidine]	8.3	4.1	9.2
COc1cc2ncnc(-c3cn(C)nc3-c3ccccc3)c2cc1NC(=O)[C@@H]1C[C@@H]1C [Example 283, (1R,2S)—N-(7-methoxy-4-(1-methyl-3-phenyl-1H-pyrazol-4-yl)quinazolin-6-yl)-2-methylcyclopropane-1-carboxamide]	1.7	0.9	1.1
CCOc1cc2ncnc(-c3cn(C(C)C)nc3-c3ccccc3)c2cc1[C@@H](C)O (single isomer, unassigned) [Example 109, (R)-1-(7-ethoxy-4-(1-isopropyl-3-phenyl-1H-pyrazol-4-yl)quinazolin-6-yl)ethan-1-ol or (S)-1-(7-ethoxy-4-(1-isopropyl-3-phenyl-1H-pyrazol-4-yl)quinazolin-6-yl)ethan-1-ol]	3.8	2.2	4.7
COc1cc2ncnc(-c3cn(C)nc3-c3ccccc3)c2cc1OC(=O)N1CCN2CCCC2C1 (stereo in doubt) [Example 85, 7-methoxy-4-(1-methyl-3-phenyl-1H-pyrazol-4-yl)quinazolin-6-yl (R)-hexahydropyrrolo[1,2-a]pyrazine-2(1H)-carboxylate]	3.9	2.7	13.3
CCOc1cc2ncnc(-c3cn(C)nc3-c3ccccc3)c2cc1OC(=O)N1CCN(C)C[C@@H]1C [Example 96, 7-ethoxy-4-(1-methyl-3-phenyl-1H-pyrazol-4-yl)quinazolin-6-yl(S)-2,4-dimethylpiperazine-1-carboxylate]	1.6	1.1	1.9
COc1cc2ncnc(-c3cn(C)nc3-c3ccccc3)c2cc1[C@@H](C)O (single isomer, unassigned) [Example 115, (R)-1-(7-methoxy-4-(1-methyl-3-phenyl-1H-pyrazol-4-yl)quinazolin-6-yl)ethan-1-ol or (S)-1-(7-methoxy-4-(1-methyl-3-phenyl-1H-pyrazol-4-yl)quinazolin-6-yl)ethan-1-ol]	2.3	1.2	10.6
COc1cc2ncnc(-c3cn(C)nc3-c3ccccc3)c2cc1OC(=O)N1[C@H](C)CN(C)C[C@H]1C [Example 89, 7-methoxy-4-(1-methyl-3-phenyl-1H-pyrazol-4-yl)quinazolin-6-yl (2R,6R)-2,4,6-trimethylpiperazine-1-carboxylate]	5.4	1.9	5.7
COc1cc2ncnc(-c3cn(C)nc3-c3ccccc3)c2cc1OC(=O)N1CCO[C@@H]2C[C@@H]21 (racemic) [Example 83, Cis-rac-7-methoxy-4-(1-methyl-3-phenyl-1H-pyrazol-4-yl)quinazolin-6-yl (1R,6S)-2-oxa-5-azabicyclo[4.1.0]heptane-5-carboxylate]	3	2.2	4.9
